Test results from ChEMBL document CHEMBL3507680, “University of Dundee, Gates Library screen for HepG2 cell viability”.

Assay: Human HepG2 cell viability assay in 384 well format
Format: toxicity, cell-based
Set-up: dose 125 nL, time 70.5 hour; cytotoxicity at 70.5 h: concentration not given beside the values
Conditions: HepG2 cells, read-out: Inhibition

Row | SMILES | cytotoxicity at 70.5 h [%]
1 | N#Cc1c2n(c3c(=O)[nH]cnc13)CCCC2 | -6.51
2 | CSc1ccc(C(=O)C2CCCN(C(=O)Cn3cnnn3)C2)cc1 (centres undefined) | -6.73
3 | CC(=O)NC1CCN(c2nc(C)nc3c2c(C)nn3C)C1 (centres undefined) | 20.8
4 | CN(CC1Cc2ccccc2CN1C)C(=O)CSc1ccccn1 (centres undefined) | -15.7
5 | O=C(O)[C@@H]1CN(C(=O)Cc2ccccc2Cl)C[C@H]1C1CC1 | -15.8
6 | CNCC(=O)NC1CC(C)(C)Cc2nc(C(C)(C)C)ncc21 (centres undefined) | -18.9
7 | CCCOCCN1CCc2[nH]c(-c3ccc(OC)cc3)nc2C1 | -17
8 | CN(C)S(=O)(=O)N1C[C@@H]2CC[C@H](C1)N(Cc1ccc3[nH]ccc3c1)C2 | -5.61
9 | O=C(C1CNCCN1C(=O)CCOc1ccccc1)N1CCOCC1 (centres undefined) | 4.76
10 | COc1cccc(CN(C)C(C)c2ccco2)c1OCCn1ccnc1 (centres undefined) | -6.31
11 | COCC(c1ccccn1)N(C)C(=O)c1cc(-c2ccccc2O)n[nH]1 (centres undefined) | -6.79
12 | CCc1[nH]c2c(CNC(=O)C3CCCN(C)C3)cc(C)cc2c1C (centres undefined) | -4.96
13 | N#Cc1cccc(OC23CCCN(CC2)C3)c1 (centres undefined) | 13.6
14 | NCCN1C(=O)CC[C@H]2CN(Cc3ccc4occc4c3)CC[C@H]21 | -8.13
15 | Cn1ccnc1SCCNC(=O)c1cc(S(N)(=O)=O)ccc1F | -9.32
16 | COc1ccc(C(=O)N2CCN(C(=O)CCCc3cn[nH]c3)CC2)cc1 | -5.64
17 | Cc1cc(C)n(C2CCN(C(=O)CN3C(=O)CSc4ccccc43)C2)n1 (centres undefined) | 30.3
18 | CC(=O)NCCNCC1(O)CCCN(CCC2CCCCC2)C1=O (centres undefined) | -1.79
19 | O=C(O)c1cc(N2C[C@H](NC(=O)C3CCOCC3)[C@@H](C3CC3)C2)ccn1 | -11.7
20 | CC(=O)N1CCc2c(nc(N(C)C)nc2NCCC2CCCCO2)C1 (centres undefined) | -5.03
21 | Cc1ccc(Cl)c(NC(=O)c2cccc(CN3CC[C@H](O)C3)c2)c1 | -5.5
22 | Cc1cc(NCCNc2cccnc2)nc(N)n1 | 12.3
23 | CN1CCC(c2n[nH]c(=O)n2-c2cccc(Cl)c2)CC1 | 10.8
24 | CCc1nc(C)c(CN2CCOC(Cc3cccc4ccccc34)C2)[nH]1 (centres undefined) | -2.51
25 | CC(Cc1cnccn1)NC(=O)c1cccc(CC2CCNCC2)c1 (centres undefined) | 14
26 | CCCN1CCCC2(CCN(c3nccc(OC)n3)C2)C1=O (centres undefined) | 2.5
27 | CC1(C)OC(=O)N(CC(=O)N2CCC(c3ccccc3F)C2)C1=O (centres undefined) | -3.83

Row | SMILES | cytotoxicity at 70.5 h [%]
28 | CN(Cc1cc2n(n1)CCN(C(=O)[C@H]1CCCO1)C2)Cc1nccs1 | 46.3
29 | O=C(NCc1cnn2cccnc12)C1CC(=O)N(Cc2cccnc2)C1 (centres undefined) | 30.6
30 | Cc1cc(C2CCC2)nc(N2CCC3(CCCN(C)C3=O)C2)n1 (centres undefined) | -10.6
31 | Cn1cc(C2=CCN(CCCOc3ccc(C(N)=O)cc3)CC2)cn1 | -11.2
32 | O=C(CCn1cccc1)N1CCc2[nH]nc(COc3ccccc3)c2C1 | -7.09
33 | CCn1c(N)nc2cc(C(=O)NCCNc3ncccc3C)cnc21 | -3.99
34 | CNC(=O)CCN(C)c1nc(-c2ccncc2)nc2c1CCNC2 | -13.1
35 | Nc1nnc(CCCNc2ncnc3c2CCN(C(=O)C2CC2)C3)s1 | -12
36 | CCCc1nc(C(=O)NCCCn2nnc3ccccc32)cs1 | -8.53
37 | O=C(C1CNCCN1C(=O)CCOc1ccccc1)N1CCCC1 (centres undefined) | -1.81
38 | Cc1cnn(CCCn2c(C)cc(C(F)(F)F)cc2=O)c1 | -9.21
39 | CCn1ccc(CN(C)C(=O)CSc2nnc(N)s2)n1 | -2.09
40 | Cc1nn(C)cc1-c1ccnc(N(C)Cc2noc(C(C)C)n2)n1 | -2.05
41 | CCOC(=O)N[C@H]1C[C@@H](C(=O)NCCc2cccc(Cl)c2)N(C)C1 | -23.6
42 | CCCc1ccc(CN2CCN(C(=O)C(C)C)[C@@H]3CS(=O)(=O)C[C@@H]32)o1 | -6.33
43 | COc1ccc(-c2cc(-c3nc(CN4CCN(C)CC4)no3)[nH]n2)cc1 | -5.68
44 | Cc1nonc1C(=O)N1CC[C@@]2(O)CCN(C3CCCCC3)C[C@H]2C1 | -9.95
45 | CCN1CC(C(=O)NCc2nc(C3CCCCC3)no2)CC1=O (centres undefined) | 5.22
46 | O=C(Nc1ccccc1OCCc1ccccn1)N1CC[C@@H](O)C1 | -31
47 | CC(C)n1ccnc1C1CCCN(c2cc(C(=O)NC3CC3)ccn2)C1 (centres undefined) | 12.2
48 | CC(C)c1nc(-c2ccc(=O)[nH]n2)n(-c2ccc3c(c2)OCO3)n1 | -10.3
49 | CNc1ncc(C(=O)N2CCC(c3ccccc3C(=O)O)C2)cn1 (centres undefined) | -5.85
50 | CC(C)(C)SCCN1CC(=O)N2CC[C@@H](O)C[C@H]2C1=O | -9.74
51 | CC(c1ccc(-c2cnc(N)nc2)cc1)N1CCOCC1 (centres undefined) | -3.76
52 | CN(C)C(=O)CN1CCN(c2ncccn2)[C@@H]2CS(=O)(=O)C[C@@H]21 | -3.2
53 | Cc1ccc(C)c(NC(=O)N2CCC3(CC2)NC(=O)CC3C(=O)O)c1 (centres undefined) | -2.48
54 | Cc1ccc(Oc2ncccc2CNC2CCCCC2)cn1 | -5.62

Row | SMILES | cytotoxicity at 70.5 h [%]
55 | Cc1cc(C)n(CC(C)NCCN2CCc3ccccc32)n1 (centres undefined) | -3.59
56 | CN(Cc1cc(C(C)(C)C)n[nH]1)C(=O)c1cn2ccsc2n1 | -2.6
57 | CCN(Cc1ccc(C)o1)C(=O)C(C)n1ccnc1C(C)C (centres undefined) | -16.9
58 | O=C1CN(CCCNS(=O)(=O)c2cccc(C(=O)NC3CC3)c2)CCN1 | -5.93
59 | CCc1nc2c(c(N3CCOCC3)n1)CCN(C(=O)N1CCCC1)CC2 | -6.31
60 | CCCN1CCC(CC(=O)N[C@H](C(=O)O)c2cccc(F)c2F)CC1 | -8.2
61 | O=C(NCC(F)(F)C(F)F)c1cccnc1 | -3.25
62 | CN(C)C(=O)c1nc(CN2C(=O)OC[C@@H]2c2ccccc2)no1 | 15.9
63 | Cc1cccnc1N1CCN(C(=O)CCc2ccccn2)CC1 | 20.1
64 | Cc1nc(C(=O)N2CCC(c3nccn3Cc3ccncc3)CC2)cs1 | -5.72
65 | CCc1cc(NCc2cc3n(n2)CCCN(S(C)(=O)=O)C3)nc(C)n1 | -6.87
66 | COc1ccc(F)cc1C(C(=O)O)N1CCCN(C2CCCC2)CC1 (centres undefined) | -5.48
67 | COc1ccnc(CNc2nc(C)nc3ccsc23)c1 | 3.18
68 | CC(C)c1ocnc1C(=O)NC(c1nnc2n1CCNCC2)C(C)C (centres undefined) | -16.6
69 | Cn1ncc2c(N3CCC(CCO)CC3)nc(C(C)(C)C)nc21 | -2.67
70 | CSc1ccccc1C(C(=O)O)N(C)CC1CCOCC1 (centres undefined) | 3.4
71 | Cc1cnc2c(C(=O)N3CCCC(OCc4ccccn4)C3)cnn2c1 (centres undefined) | -7.53
72 | CC1CCCN1Cc1ccccc1-c1nc(C(C)(C)C)cc(=O)[nH]1 (centres undefined) | 31.4
73 | Cc1cc(N(C)Cc2cc(C(C)(C)C)n[nH]2)nc(-c2cccnc2)n1 | 41.6
74 | O=C1CCCN1CCCNCc1cc(O)c2cccc(Cl)c2n1 | 21
75 | O=C(C(O)c1ccccc1Cl)N1CCCN(Cc2cccnc2)CC1 (centres undefined) | -4.87
76 | O=C(O)c1cccnc1CN1CCCC1CCc1ccccc1 (centres undefined) | -14.9
77 | Cc1cc(C)cc(CN2CCN(Cc3cccc(CCN)c3)CC2=O)c1 | -10.8
78 | CCOc1ccc(Cl)cc1C(C(=O)O)N1CCC(CO)CC1 (centres undefined) | 0.285
79 | Cc1c[nH]c(CN2CCOC(c3ccc(Cl)c(Cl)c3)C2)c(C)c1=O (centres undefined) | 5.88
